Activity calls are given as the source filed them.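 The calls were made as follows: active = compounds raising the signal whose fitted half-maximal concentration is at or below their top tested dose (cut at about 25 µM in these data); inconclusive = flat fit at 30 to 70% activity, or a poor fit; inactive = the rest.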
What follows are compounds tested on INS-1E rat beta cells, no cytokines, CellTiter-Glo ATP, 48 h (assay: ATP level change in INS-1E without cytokines, dose response, counter-screen for beta-cell apoptosis protection project, INS-1E rat cells, ATP luminescence, cherry pick (AID 463229)).

Row | Compound | AC50
1 | CCCCCn1c(=O)c(C(=O)NCc2ccccc2Cl)c(O)c2ccccc21 | 6.84 µM
2 | COc1ccccc1OCCCCOc1ccccc1C(C)=O | 23 µM
3 | O=C(Cc1ccc(Cl)cc1)c1c[nH]c(C(=O)NCc2cccnc2)c1 | 0.665 µM
4 | CN(Cc1c(F)cccc1Cl)C(=O)c1cc2ccccc2o1 | > 26 µM (inactive)
5 | CC(=O)Nc1ccccc1OCC(=O)c1cc(C)n(Cc2cccs2)c1C | 1.01 µM
6 | CCOC(=O)c1c(NC(=O)C[n+]2ccc(Cc3ccccc3)cc2)sc(C)c1C | 10.9 µM
7 | Oc1cccc(C(Nc2nccs2)c2ccc3cccnc3c2O)c1 (stereo not given) | 2.54 µM
8 | Cc1ccccc1-c1cc(C(=O)Nc2sc(C)c(C)c2C(N)=O)c2ccccc2n1 | 6.8 µM
9 | CCc1ccc(CN(C)C(=O)c2cc(COc3cccc4cnccc34)on2)cc1 | 7.91 µM
10 | CC(=O)N1CCN(c2ccc(Oc3ccc([N+](=O)[O-])c(C(F)(F)F)c3)cc2)CC1 | 7.04 µM
11 | COC(=O)C[C@]1(C(=O)OC)CN(C#N)N(c2ccc(Cl)cc2)C12c1ccccc1-c1ccccc12 | 4.13 µM
12 | CC(C)N=c1cc2n(-c3ccc(Cl)cc3)c3ccccc3nc-2cc1Nc1ccc(Cl)cc1 | 6.69 µM
13 | C=CCSc1nsc(NC(=O)Nc2ccc(F)cc2)n1 | 3.4 µM
14 | CC(C)c1ccc(COc2ccc(C(=O)N3CCOCC3)cc2)cc1 | 12.9 µM
15 | Nc1nc(-c2ccccn2)nc(N)c1Cc1c(F)cccc1Cl | 8.86 µM
16 | O=C(CCCc1nc(-c2ccc(Cl)cc2)no1)NC1CCCC1 | 13.5 µM
17 | Oc1ccc(Nc2nc(N3CCCC3)c3ccccc3n2)cc1 | 18.9 µM
18 | O=C(Nc1ccc(Cl)cc1)Nc1nnc(-c2ccncc2)s1 | 4.78 µM
19 | O=C(NCc1cccnc1)/C(=C/c1ccc(-c2cccc(Cl)c2)o1)S(=O)(=O)c1ccccc1 | 4.93 µM
20 | CCN(CC)S(=O)(=O)c1ccc(NC(=O)Nc2cccc(C(F)(F)F)c2)cc1 | 8.02 µM
21 | Brc1ccc(CN2CCN(Cc3c[nH]c4ccccc34)CC2)cc1 | 6.91 µM
22 | CC1Sc2ccc(S(=O)(=O)N3CCC(C(=O)Nc4ccc(Cl)cc4)CC3)cc2NC1=O (stereo not given) | 6.13 µM

Row | Compound | AC50
23 | O=C(CN1CCOCC1)N/N=C/c1c(O)ccc2ccccc12 | 16.1 µM
24 | Cc1cc(C)cc(NC(=O)/C(C#N)=C/c2cn(CC(=O)NCc3ccco3)c3ccccc23)c1 | 5.06 µM
25 | CCN(CC)CCCNC1=C(Cl)C(=O)c2ccccc2C1=O | 13.1 µM
26 | CCOc1cccc(/C=N/Nc2ccc(S(=O)(=O)N(CC)CC)cn2)c1O | 3.67 µM
27 | CCn1c(=O)c([N+](=O)[O-])c(Cl)c2ccccc21 | 7.4 µM
28 | CC(=O)c1c(C)[nH]c(C(=O)OCCCCN2C(=O)c3ccccc3C2=O)c1C | 6.54 µM
29 | O=C(/C(N=Nc1cccc([N+](=O)[O-])c1)=C(/O)c1ccc(Br)cc1)C(F)(F)F | 6.66 µM
30 | Cc1cc(C)c2c(ccc3cccc[n+]32)c1 | 6.45 µM
31 | CCOC(=O)c1c(C)[nH]c(C(=O)N/N=C\c2ccccc2O)c1C | 6.52 µM
32 | Clc1ccc2c(N/N=C/c3cccc(Br)c3)ccnc2c1 | 10.7 µM
33 | O=C1C=C(Nc2ccc(F)cc2)c2ccccc2C1=O | 7.19 µM
34 | CCCC[n+]1ccn(C2=C([O-])c3ccccc3C(=O)/C2=N\S(=O)(=O)c2ccc(Cl)cc2)c1 | 15.8 µM
35 | O=C(Nc1ccc(Cl)cc1)Nc1nnc(CSCc2ccc(Cl)cc2)s1 | 6.74 µM
36 | CCCC(=O)NC(c1ccc2c(c1)OCO2)c1cc(Cl)c2cccnc2c1O (stereo not given) | 4.39 µM
37 | Cc1nc2ccccc2c2oc(C(=O)Nc3ccc(C(C)C)cc3)cc12 | 21.6 µM
38 | O=C(Nc1cc(Sc2ccccn2)cc([N+](=O)[O-])c1)c1ccc(Cl)cc1 | 8.9 µM
39 | CC(=O)C1=NN(c2ccccc2)C(c2cccs2)N1c1ccc(N(C)C)cc1 (stereo not given) | 3.56 µM
40 | NC1=NC[C@H](Cc2ccccc2)N1CCCCC1CCCCC1 | 6.91 µM
41 | CCCC(=O)NC(c1ccccc1Cl)c1ccc2cccnc2c1O (stereo not given) | 2.13 µM
42 | Cc1ccc(-c2nn(-c3ccccc3)cc2/C=C/C(=O)Nc2cccc(S(N)(=O)=O)c2)cc1 | 2.75 µM
43 | FC(F)(F)c1nnc(-c2ccccc2)nc1Sc1ccc(Cl)cc1 | 12.6 µM
44 | CC[C@H]1CN2CCc3cc(OC)c(OC)cc3[C@@H]2C[C@@H]1C[C@H]1NCCc2cc(OC)c(OC)cc21 | 9.67 µM

Row | Compound | AC50
45 | CN(C)CCOc1ccc(-c2c(-c3ccccc3)sc3ccccc23)cc1 | 12.8 µM
46 | CCOC(=O)c1ccc(NC(=O)Cn2cnc3cc(C)c(C)cc32)cc1 | 5.23 µM
47 | CC(C)(C)OC(=O)NCc1ccc(NC(=O)c2nc[nH]c2C(=O)NCCCCNC(=O)c2[nH]cnc2C(=O)Nc2ccc(CNC(=O)OC(C)(C)C)cc2)cc1 | 5.34 µM
48 | COc1cc(N/N=C/c2ccccc2O)ncn1 | 16.2 µM
49 | Cc1[nH]n(-c2ccc(Br)cc2)c(=O)c1/C=N/NC(=O)c1ccccc1 | 2.13 µM
50 | Fc1ccc2nc(Nc3nc4c(F)cc(F)cc4s3)sc2c1 | 7.69 µM
51 | CCCN(CCC)c1nc(-c2ccccn2)nc2ccccc12 | 4.34 µM
52 | CN(C)c1cc[n+](CC(=O)Nc2ccc(Oc3ccccc3)cc2)cc1 | 2.36 µM
53 | Nc1nc(N)c2cc(Sc3ccc4ccccc4c3)ccc2n1 | 2.09 µM
54 | Cc1ccc(S(=O)(=O)/N=C2\C(=O)c3ccccc3C([O-])=C2n2cc[n+](CCC(C)C)c2)cc1 | 16.7 µM
55 | CCN1CCN(C(c2ccc(C(F)(F)F)cc2)c2ccc3cccnc3c2O)CC1 (stereo not given) | 4.72 µM
56 | CCCc1sc(N/N=C/c2ccccn2)nc1-c1ccc(F)cc1 | 2.27 µM
57 | Cc1nnc(N=c2ssnc2Cl)o1 | 13.6 µM
58 | COc1ccc2nc(N=Nc3ccc(O)c4ccccc34)sc2c1 | 7.16 µM
59 | CCCCCCCCn1c(=O)c(C(=O)OC)c(N)c2ccccc21 | 4.89 µM
60 | Cc1cccc2sc(NNC(=O)c3ccc(S(=O)(=O)N4CCCC(C)C4)cc3)nc12 (stereo not given) | 6.74 µM
61 | Cc1ccc(Nc2cc(C)nn2-c2nc(C)cc(=O)[nH]2)cc1 | 1.57 µM
62 | COc1ccc(-c2cn(-c3ccc(Cl)cc3)c3[n+]2CCCCC3)cc1 | 2 µM
63 | O=C(NNC(=O)c1ccccc1O)c1ccc(Cl)c(S(=O)(=O)N2CCc3ccccc32)c1 | 7.82 µM
64 | COc1ccc(CNC(=O)c2c(C)oc3c2C(=O)c2ccccc2C3=O)cc1 | 7.42 µM
65 | CCc1ccc(OCC(=O)NC(NC(=S)Nc2ccc(C)cc2C)C(Cl)(Cl)Cl)cc1 (stereo not given) | 11.2 µM
66 | COc1cc(Br)cc(/C=N/NC(=O)Cc2ccc(C(F)(F)F)cc2[N+](=O)[O-])c1O | 14.7 µM

Row | Compound | AC50
67 | Cc1ccc(Nc2nc(NCc3ccco3)c3ccccc3n2)cc1 | 8.02 µM
68 | On1onc2c3cc(-c4ccccc4)nc3ccc21 | 5.23 µM
69 | Cc1ccc(NC(=O)Cc2nn(C)c(=O)c3ccccc23)cc1F | 6.97 µM
70 | Cc1sc2ncnc(NCc3cccs3)c2c1C | 6.4 µM
71 | [O-][n+]1onc2c1CCc1c-2nn(-c2ccccc2Cl)[n+]1[O-] | 7.37 µM
72 | COc1ccccc1C(NC(C)=O)c1cc(Cl)c2cccnc2c1O (stereo not given) | 7.24 µM
73 | CCOc1ccc(-c2csc(/C(C#N)=C\c3ccc(O)c([N+](=O)[O-])c3)n2)cc1 | 4.57 µM
74 | O=[N+]([O-])c1ccc(/C=N/n2c(CO)nc3ccccc32)s1 | 10.8 µM
75 | FC(F)(F)c1cnc(NNC(=S)Nc2ccccc2Cl)c(Cl)c1 | 7.03 µM
76 | N#CC1=C(N)Oc2c(ccc3cccnc23)C1c1cccnc1 (stereo not given) | 7.5 µM
77 | O=C(N/N=C/c1c(O)ccc2ccccc12)c1[nH]ncc1Br | 2.16 µM
78 | COc1ccc2c(c1)c(/C=N/Nc1nc3ccccc3[nH]1)c(C)n2C | 14.7 µM
79 | CCCCCCCCCCCCCCCC[N+](C)(C)CC | 6.57 µM
80 | CC(=O)Nc1ccc(S(=O)(=O)NC2=C(N3CCN(c4ccc(F)cc4)CC3)C(=O)c3ccccc3C2=O)cc1 | 7.51 µM
81 | CCCCCCCCn1ccc(=N)cc1 | 0.65 µM
82 | Cc1ccc(NS(=O)(=O)c2cc([N+](=O)[O-])ccc2NNC(=S)Nc2cc(C)ccc2C)c(C)c1 | 4.65 µM
83 | COc1ccc(Cn2c(SCc3ccc(C)cc3)nc3cc(OC)c(OC)cc3c2=N)cc1Cl | 6.89 µM
84 | CCc1ccc2[nH]c(=O)c(C3C(C#N)=C(N)Oc4c3ccc3cccnc43)cc2c1 (stereo not given) | 5.4 µM
85 | O=C(Nc1ccc(Cc2ccncc2)cc1)c1ccc([N+](=O)[O-])o1 | 10.1 µM
86 | CN1/C(=C\C(=O)COC(=O)c2ccc(O)c(O)c2)C(C)(C)c2ccccc21 | 10.1 µM
87 | COC(=O)c1cc(C)nc2c1C(=O)C(=O)C=C2N1CCOCC1 | 4.66 µM
88 | O=C(Nc1ccc([N+](=O)[O-])cc1)Nc1ccc(Cl)cc1F | 6.71 µM

Row | Compound | AC50
89 | [O-]c1ccccc1-[n+]1c(-c2ccccc2)cc(-c2ccccc2)cc1-c1ccccc1 | 6.87 µM
90 | O=C(Cc1cccs1)N/N=C\c1ccc([N+](=O)[O-])s1 | 7.04 µM
91 | COc1ccc2nc(Nc3nc(CSc4nc5ccccc5[nH]4)cc(=O)[nH]3)nc(C)c2c1 | 7.05 µM
92 | Cc1ccc(C(C)C)c(OCc2ccc(C(=O)N/N=C/c3ccc(O)cc3O)cc2)c1 | 3.99 µM
93 | Cc1cc(N/N=C/c2c(O)ccc3ccccc23)nc(-c2ccccc2O)n1 | 11.7 µM
94 | COc1ccc(Nc2nc(N3CCCCC3)c3ccccc3n2)cc1 | 12 µM
95 | COC(=O)c1ccccc1NC(=O)c1nc(S(=O)(=O)Cc2ccccc2)ncc1Cl | 7.98 µM
96 | CCCCCCCC[n+]1cccc2c3ccccc3ccc21 | 0.273 µM
97 | CC(=O)Nc1sc2c(c1-c1nc3ccccc3s1)CCN(C(C)C)C2 | 5.11 µM
98 | COc1ccccc1/C=C/CN1CCC(n2nccc2NC(=O)CCc2ccccc2)CC1 | 8.85 µM
99 | CC(=O)c1c(C)oc2c1C(=O)c1ccccc1C2=O | 14.4 µM
100 | Cc1ccc(S(=O)(=O)Nc2ccccc2C(=O)Nc2nc(-c3ccc(F)cc3)cs2)cc1 | 2.92 µM
101 | O=C(Oc1c(CN2CCOCC2)cc(Cl)c2cccnc12)c1ccccc1 | 17.1 µM
102 | CCOc1ccc(S(=O)(=O)N2CCCCC2)cc1NC(=O)CN1CCCC1c1cccs1 (stereo not given) | 5.24 µM
103 | COc1ccccc1N1CCN(c2ncc(C(=O)N3CCN(c4cccc(Cl)c4)CC3)c3ccccc23)CC1 | 4.69 µM
104 | C=CCn1cc(/C=C/c2cc[n+](C)cc2)c2ccccc21 | 4.63 µM
105 | Cc1nc2cc(-c3ccccc3)sc2c(=O)n1N | 3.6 µM
106 | Cc1ccc([N+](=O)[O-])cc1N(CC(=O)Nc1ccc(S(=O)(=O)Nc2cccc(C(F)(F)F)c2)cc1)S(C)(=O)=O | 4.1 µM
107 | O=C(NCc1cccnc1)c1ccc(NC(=O)c2cccc([N+](=O)[O-])c2)cc1 | 0.205 µM
108 | CCCCNc1c(-c2ccc(OC)c(SC(C)CC)c2)nc2ccc(C)cn12 (stereo not given) | 4.44 µM
109 | CCCCCCn1c2c(c(=N)c3c1CCC3)CCC2 | 1.88 µM
110 | COc1ccc2c(C(=O)NCc3ccc4c(c3)OCO4)c(-c3ccc(S(C)(=O)=O)cc3)sc2c1 | 9.16 µM
